Here are results for 39 compounds from ChEMBL document CHEMBL4052583, “A Potent, Selective, and Orally Bioavailable HCV NS5A Inhibitor for Treatment of Hepatitis C Virus: (S)-1-((R)-2-(Cyclopropanecarboxamido)-2-phenylacetyl)-N-(4-phenylthiazol-2-yl)pyrrolidine-2-carboxamide” (J Med Chem, 2017).

Data set [1] in a line: Cytotoxic activity against human HuH7 cells containing HCV subgenomic replicons Ava5-EG(D4AB)SEAP by MTS assay. The format is cell-based, Huh-7. (In general: Replicon systems follow genome replication, usually without infectious particles.)
Data set [2] is described as follows: Inhibition of NS5A in HCV genotype 1b Ava5 infected in human HuH7 cells containing Ava5-EG(D4AB)SEAP subgenomic replicons assessed as reduction in viral replicon growth incubated for 1 day by Phospha-light assay method. Particulars: Hepatitis C virus, Ava5, 24 h. The class given is cell-based, Hepatitis C virus subtype 1b.

Structures are written as SMILES.

With `O=C(Nc1nccs1)[C@@H]1CCCN1C(=O)[C@H](NC(=O)N1CCOCC1)c1ccccc1`, the CC50 in data set [1] is over 50 µM. Further, the EC50 in data set [2] is 9.65 µM.
`C[C@@H](NC(=O)N1CCOCC1)C(=O)N1CCC[C@H]1C(=O)Nc1nc(-c2ccccc2)cs1` gave a half-maximal cytotoxic concentration (CC50) in data set [1] of over 50 µM. In data set [2], the EC50 worked out at 1.31 µM.
Compound `O=C(N[C@@H](C(=O)N1CCC[C@H]1C(=O)Nc1nc(-c2ccccc2)cs1)c1ccccc1)C1CCCC1` returned a CC50 in data set [1] of over 50 µM. For the same compound, the EC50 in data set [2] was found to be 0.013 µM.
In the same order, the values of `CC(=O)N[C@@H](C(=O)N1CCC[C@H]1C(=O)Nc1nc(-c2ccccc2)cs1)c1ccccc1` are over 50 µM and 0.016 µM.
In the same order, the values of `O=C(NC1CC1)N[C@@H](C(=O)N1CCC[C@H]1C(=O)Nc1nc(-c2ccccc2)cs1)c1ccccc1` are over 50 µM and 0.0035 µM.
Compound `O=C(Nc1nc(-c2ccccc2)cs1)[C@@H]1CCCN1C(=O)[C@H](NC(=S)Nc1ccccc1)c1ccccc1` came in with a CC50 in data set [1] of over 50 µM. Moreover, the EC50 in data set [2] turned out to be 0.046 µM.
As to `O=C(NC1CCCCC1)N[C@@H](C(=O)N1CCC[C@H]1C(=O)Nc1nc(-c2ccccc2)cs1)c1ccccc1`, the CC50 in data set [1] was over 50 µM. Also, the concentration for a half-maximal effect (EC50) in data set [2] came to 0.0033 µM.
In turn, `O=C(Nc1nc(-c2ccccc2)cs1)[C@@H]1CCCN1C(=O)[C@H](NC(=S)NC1CCCCC1)c1ccccc1` returned a CC50 in data set [1] of over 50 µM. Further, the EC50 in data set [2] is 0.0032 µM.
Compound `CC[C@@H](NC(=O)N1CCOCC1)C(=O)N1CCC[C@H]1C(=O)Nc1nc(-c2ccccc2)cs1` came in with a CC50 in data set [1] of over 50 µM. Moreover, in data set [2], the half-maximal effective concentration (EC50) was 1.63 µM.
Turning to `CCN(CC)C(=O)N[C@@H](C(=O)N1CCC[C@H]1C(=O)Nc1nc(-c2ccccc2)cs1)c1ccccc1`, the CC50 in data set [1] was over 50 µM. Moreover, in data set [2], the EC50 was determined as 0.018 µM.
The compound `O=C(N[C@@H](C(=O)N1CCC[C@H]1c1ncc(-c2ccccc2)s1)c1ccccc1)N1CCOCC1` showed a CC50 in data set [1] of over 50 µM. In addition, the EC50 in data set [2] was 2.97 µM.
Turning to `O=C(Nc1ccccn1)N[C@@H](C(=O)N1CCC[C@H]1C(=O)Nc1nc(-c2ccccc2)cs1)c1ccccc1`, in data set [1], the CC50 was over 50 µM. Moreover, the EC50 in data set [2] was 0.03 µM.
The compound `CC(C)[C@@H](NC(=O)N1CCOCC1)C(=O)N1CCC[C@H]1C(=O)Nc1nc(-c2ccccc2)cs1` gave a CC50 in data set [1] of over 50 µM. For the same compound, the EC50 in data set [2] worked out at 0.99 µM.
As to `CC(C)(C)c1csc(NC(=O)[C@@H]2CCCN2C(=O)[C@H](NC(=O)N2CCOCC2)c2ccccc2)n1`, in data set [1], the CC50 was over 50 µM. The EC50 in data set [2] was 0.021 µM.
Consider `O=C(Nc1ccccc1)N[C@@H](C(=O)N1CCC[C@H]1C(=O)Nc1nc(-c2ccccc2)cs1)c1ccccc1`, for which the CC50 in data set [1] is over 50 µM. Besides, the EC50 in data set [2] came to 0.0023 µM.
For `O=C(Nc1nc(-c2ccccc2)cs1)[C@@H]1CCCN1C(=O)[C@H](NC(=S)NC1CC1)c1ccccc1`, in data set [1], the CC50 is over 50 µM. For the same compound, the concentration for a half-maximal effect (EC50) in data set [2] amounted to 0.034 µM.
Regarding `CC(C)C(=O)N[C@@H](C(=O)N1CCC[C@H]1C(=O)Nc1nc(-c2ccccc2)cs1)c1ccccc1`, the CC50 in data set [1] is over 50 µM. Further, in data set [2], the EC50 was 0.036 µM.
The compound `O=C(N[C@@H](C(=O)N1CCC[C@H]1c1nc(-c2ccccc2)no1)c1ccccc1)N1CCOCC1` gave a CC50 in data set [1] of over 50 µM. In addition, the 50% effective concentration (EC50) in data set [2] was over 50 µM.
Compound `O=C(Nc1cccnc1)N[C@@H](C(=O)N1CCC[C@H]1C(=O)Nc1nc(-c2ccccc2)cs1)c1ccccc1` gave a CC50 in data set [1] of over 50 µM. In addition, in data set [2], the EC50 stood at 0.0019 µM.
`O=C(N[C@@H](C(=O)N1CCC[C@H]1C(=O)Nc1nc(-c2ccccc2)cs1)c1ccccc1)c1cccnc1` had a CC50 in data set [1] of over 50 µM. Further, the EC50 in data set [2] worked out at 0.013 µM.
`CCC(=O)N[C@@H](C(=O)N1CCC[C@H]1C(=O)Nc1nc(-c2ccccc2)cs1)c1ccccc1` gave a CC50 in data set [1] of over 50 µM. Further, the EC50 in data set [2] was 0.023 µM.
In turn, `CN1CCN(C(=O)N[C@@H](C(=O)N2CCC[C@H]2C(=O)Nc2nc(-c3ccccc3)cs2)c2ccccc2)CC1` displayed a CC50 in data set [1] of over 50 µM. Further, the EC50 in data set [2] is 0.00085 µM.
As for `O=C(Nc1nc(-c2ccccc2)cs1)[C@@H]1CCCN1C(=O)[C@H](NC(=S)NC1CCCC1)c1ccccc1`, the CC50 in data set [1] is over 50 µM. Also, the EC50 in data set [2] was determined as 0.0052 µM.
For `CN(C)C(=O)N[C@@H](C(=O)N1CCC[C@H]1C(=O)Nc1nc(-c2ccccc2)cs1)c1ccccc1`, the CC50 in data set [1] was over 50 µM. Further, in data set [2], the EC50 amounted to 0.011 µM.
In the same order, the values of `O=C(N[C@@H](C(=O)N1CCC[C@H]1c1nc(-c2ccccc2)cs1)c1ccccc1)N1CCOCC1` are over 50 µM and 9.44 µM.
Compound `O=C(Nc1nc(C2CCCCC2)cs1)[C@@H]1CCCN1C(=O)[C@H](NC(=O)N1CCOCC1)c1ccccc1` returned a cytotoxic concentration (CC50) in data set [1] of over 50 µM. In addition, in data set [2], the concentration for a half-maximal effect (EC50) was determined as 0.006 µM.
In the same order, the values of `O=C(N[C@@H](C(=O)N1CCC[C@H]1C(=O)Nc1nc(-c2ccccc2)cs1)c1ccccc1)C1CCCCC1` are over 50 µM and 0.014 µM.
`O=C(Nc1nc(-c2ccccc2)cs1)[C@@H]1CCCN1C(=O)[C@H](NC(=S)Nc1cccnc1)c1ccccc1`: the CC50 in data set [1] is over 50 µM. The EC50 in data set [2] stood at 0.023 µM.
In the same order, the values of `CC(C)(C)[C@@H](NC(=O)N1CCOCC1)C(=O)N1CCC[C@H]1C(=O)Nc1nc(-c2ccccc2)cs1` are over 50 µM and 7.06 µM.
The compound `O=C(NC1CCCC1)N[C@@H](C(=O)N1CCC[C@H]1C(=O)Nc1nc(-c2ccccc2)cs1)c1ccccc1` showed a CC50 in data set [1] of over 50 µM. Further, the EC50 in data set [2] turned out to be 0.013 µM.
On to `Cc1csc(NC(=O)[C@@H]2CCCN2C(=O)[C@H](NC(=O)N2CCOCC2)c2ccccc2)n1`, for which the CC50 in data set [1] is over 50 µM. Moreover, in data set [2], the EC50 came to 0.4 µM.
Compound `O=C(Nc1ccncc1)N[C@@H](C(=O)N1CCC[C@H]1C(=O)Nc1nc(-c2ccccc2)cs1)c1ccccc1` had a cytotoxic concentration (CC50) in data set [1] of over 50 µM. The EC50 in data set [2] was 0.022 µM.
In the same order, the values of `O=C(Nc1nc(-c2ccccc2)cs1)[C@@H]1CCCN1C(=O)[C@H](NC(=O)N1CCCCC1)c1ccccc1` are over 50 µM and 0.0031 µM.
Consider `O=C(N[C@@H](C(=O)N1CCC[C@H]1c1ncc(-c2ccccc2)[nH]1)c1ccccc1)N1CCOCC1`, for which the CC50 in data set [1] is over 50 µM. Further, the EC50 in data set [2] was found to be 0.098 µM.
On to `O=C(N[C@@H](C(=O)N1CCC[C@H]1C(=O)Nc1nc(-c2ccccc2)cs1)c1ccccc1)c1ccccn1`, for which the CC50 in data set [1] is over 50 µM. Further, the EC50 in data set [2] was 0.022 µM.
In the same order, the values of `CCC[C@@H](NC(=O)N1CCOCC1)C(=O)N1CCC[C@H]1C(=O)Nc1nc(-c2ccccc2)cs1` are over 50 µM and 0.27 µM.
For the compound `O=C(NC1CCCCCC1)N[C@@H](C(=O)N1CCC[C@H]1C(=O)Nc1nc(-c2ccccc2)cs1)c1ccccc1`, the 50% cytotoxic concentration (CC50) in data set [1] was over 50 µM. The EC50 in data set [2] was 0.0038 µM.
For the compound `CC(C)(C)C(=O)N[C@@H](C(=O)N1CCC[C@H]1C(=O)Nc1nc(-c2ccccc2)cs1)c1ccccc1`, the CC50 in data set [1] was over 50 µM. Also, the EC50 in data set [2] was 0.086 µM.
In turn, `CCCC(=O)N[C@@H](C(=O)N1CCC[C@H]1C(=O)Nc1nc(-c2ccccc2)cs1)c1ccccc1` returned a CC50 in data set [1] of over 50 µM. In data set [2], the concentration giving a half-maximal response (EC50) was 0.015 µM.

By CC50 is commonly meant the concentration at which the toxic effect on the cells reaches its halfway point. A lower CC50 goes with harm at low concentration. In general, EC50 refers to the concentration that produces a half-maximal response.
